Tests used:
[1] = molecular target: T1, Type-1 angiotensin II receptor (Homo sapiens, UniProt P30556)
T1 sequence (P30556 whole entry): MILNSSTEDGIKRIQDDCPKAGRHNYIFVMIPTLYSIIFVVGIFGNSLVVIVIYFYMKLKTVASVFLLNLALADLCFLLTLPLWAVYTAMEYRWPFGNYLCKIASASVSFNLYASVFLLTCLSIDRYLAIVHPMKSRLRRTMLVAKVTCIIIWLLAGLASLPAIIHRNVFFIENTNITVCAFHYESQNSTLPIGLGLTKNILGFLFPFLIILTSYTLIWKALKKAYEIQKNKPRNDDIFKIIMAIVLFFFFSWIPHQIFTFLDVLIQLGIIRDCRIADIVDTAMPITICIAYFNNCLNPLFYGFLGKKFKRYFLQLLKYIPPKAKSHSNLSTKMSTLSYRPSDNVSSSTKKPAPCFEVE

Vasopressin V2 receptor = Vasopressin V2 receptor (Homo sapiens, UniProt P30518)
Chain of Vasopressin V2 receptor (P30518 whole entry): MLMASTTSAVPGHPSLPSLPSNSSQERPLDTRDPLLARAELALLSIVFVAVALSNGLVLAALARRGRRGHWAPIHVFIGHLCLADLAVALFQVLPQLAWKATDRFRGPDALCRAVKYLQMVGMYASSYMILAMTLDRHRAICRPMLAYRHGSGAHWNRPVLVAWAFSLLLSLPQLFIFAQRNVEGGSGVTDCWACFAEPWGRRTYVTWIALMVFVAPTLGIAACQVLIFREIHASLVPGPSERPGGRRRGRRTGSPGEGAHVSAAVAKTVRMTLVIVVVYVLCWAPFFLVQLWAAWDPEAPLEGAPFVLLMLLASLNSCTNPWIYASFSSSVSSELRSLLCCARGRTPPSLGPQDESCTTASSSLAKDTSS

[2] = molecular target: T2, Muscarinic acetylcholine receptor M1 (Homo sapiens, UniProt P11229); format: functional
T2 sequence (P11229 whole entry): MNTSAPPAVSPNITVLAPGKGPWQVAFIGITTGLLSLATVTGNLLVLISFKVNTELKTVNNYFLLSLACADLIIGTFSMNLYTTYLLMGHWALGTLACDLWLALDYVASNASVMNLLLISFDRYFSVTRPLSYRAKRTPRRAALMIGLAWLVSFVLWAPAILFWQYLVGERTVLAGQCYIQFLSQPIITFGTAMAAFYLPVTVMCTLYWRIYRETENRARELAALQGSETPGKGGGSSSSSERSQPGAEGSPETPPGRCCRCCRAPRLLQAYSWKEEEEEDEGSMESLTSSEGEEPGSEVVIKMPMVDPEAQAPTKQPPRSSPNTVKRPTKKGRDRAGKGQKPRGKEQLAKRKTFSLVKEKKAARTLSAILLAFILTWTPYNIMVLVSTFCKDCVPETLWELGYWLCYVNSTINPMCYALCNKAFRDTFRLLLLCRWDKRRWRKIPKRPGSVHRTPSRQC

Estrogen receptor = molecular target: T3, Estrogen receptor (Homo sapiens, UniProt P03372)
T3 sequence (P03372 whole entry): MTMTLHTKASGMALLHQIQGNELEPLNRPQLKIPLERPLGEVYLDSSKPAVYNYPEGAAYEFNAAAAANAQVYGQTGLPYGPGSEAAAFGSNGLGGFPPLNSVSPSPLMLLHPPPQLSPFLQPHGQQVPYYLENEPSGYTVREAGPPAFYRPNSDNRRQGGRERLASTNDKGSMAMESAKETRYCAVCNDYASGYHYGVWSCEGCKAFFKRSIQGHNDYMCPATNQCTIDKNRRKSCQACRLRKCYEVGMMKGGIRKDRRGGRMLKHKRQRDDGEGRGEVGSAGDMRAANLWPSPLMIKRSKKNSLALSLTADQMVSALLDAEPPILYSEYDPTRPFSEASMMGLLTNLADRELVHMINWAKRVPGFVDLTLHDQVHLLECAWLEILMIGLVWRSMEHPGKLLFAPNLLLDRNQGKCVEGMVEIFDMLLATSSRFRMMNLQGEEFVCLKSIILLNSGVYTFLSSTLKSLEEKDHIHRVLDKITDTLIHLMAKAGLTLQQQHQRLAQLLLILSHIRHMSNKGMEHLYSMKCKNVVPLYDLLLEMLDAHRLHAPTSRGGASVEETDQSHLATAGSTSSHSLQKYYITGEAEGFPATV

[3] = molecular target: Growth hormone secretagogue receptor type 1 (Homo sapiens, UniProt Q92847)
Chain of Growth hormone secretagogue receptor type 1 (Q92847 whole entry): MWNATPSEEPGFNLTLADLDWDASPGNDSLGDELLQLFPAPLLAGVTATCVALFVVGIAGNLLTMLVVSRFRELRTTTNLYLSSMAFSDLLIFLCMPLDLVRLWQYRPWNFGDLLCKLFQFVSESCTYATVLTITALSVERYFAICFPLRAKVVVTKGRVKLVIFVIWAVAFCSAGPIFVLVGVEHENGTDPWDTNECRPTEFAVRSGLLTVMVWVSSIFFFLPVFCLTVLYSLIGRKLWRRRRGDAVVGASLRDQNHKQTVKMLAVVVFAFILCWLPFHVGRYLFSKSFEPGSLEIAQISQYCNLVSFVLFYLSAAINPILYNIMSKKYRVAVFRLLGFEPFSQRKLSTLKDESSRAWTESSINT

[4] = molecular target: T4, 5-hydroxytryptamine receptor 1A (Homo sapiens, UniProt P08908); format: functional, cell-based
T4 sequence (P08908 whole entry): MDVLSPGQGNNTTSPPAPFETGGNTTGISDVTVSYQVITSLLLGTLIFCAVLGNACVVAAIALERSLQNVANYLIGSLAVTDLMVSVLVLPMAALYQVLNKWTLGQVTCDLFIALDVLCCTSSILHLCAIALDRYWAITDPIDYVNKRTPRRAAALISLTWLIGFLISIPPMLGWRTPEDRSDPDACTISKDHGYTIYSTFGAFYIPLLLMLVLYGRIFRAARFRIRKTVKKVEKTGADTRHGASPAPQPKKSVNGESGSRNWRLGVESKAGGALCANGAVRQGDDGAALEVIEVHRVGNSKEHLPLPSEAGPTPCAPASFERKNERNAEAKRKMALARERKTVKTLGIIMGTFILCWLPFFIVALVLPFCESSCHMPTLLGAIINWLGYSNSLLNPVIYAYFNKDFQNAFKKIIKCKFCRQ

[5] = molecular target: 5-hydroxytryptamine receptor 2B (Homo sapiens, UniProt P41595); format: functional, cell-based
Chain of 5-hydroxytryptamine receptor 2B (P41595 whole entry): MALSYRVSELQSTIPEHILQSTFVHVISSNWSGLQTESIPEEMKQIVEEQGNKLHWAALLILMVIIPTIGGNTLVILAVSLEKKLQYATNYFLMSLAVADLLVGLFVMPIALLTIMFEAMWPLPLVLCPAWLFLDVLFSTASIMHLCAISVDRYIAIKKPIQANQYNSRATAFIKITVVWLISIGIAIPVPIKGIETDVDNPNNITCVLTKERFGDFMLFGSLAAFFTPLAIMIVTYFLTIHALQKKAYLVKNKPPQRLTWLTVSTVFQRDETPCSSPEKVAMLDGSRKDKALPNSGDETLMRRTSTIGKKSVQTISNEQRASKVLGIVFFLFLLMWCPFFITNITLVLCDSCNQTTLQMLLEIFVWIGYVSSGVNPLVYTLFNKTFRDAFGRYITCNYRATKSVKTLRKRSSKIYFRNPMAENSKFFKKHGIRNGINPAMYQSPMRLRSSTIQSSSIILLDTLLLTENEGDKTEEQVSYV

[6] = molecular target: T5, 5-hydroxytryptamine receptor 3A (Homo sapiens, UniProt P46098); format: functional
T5 sequence (P46098 whole entry): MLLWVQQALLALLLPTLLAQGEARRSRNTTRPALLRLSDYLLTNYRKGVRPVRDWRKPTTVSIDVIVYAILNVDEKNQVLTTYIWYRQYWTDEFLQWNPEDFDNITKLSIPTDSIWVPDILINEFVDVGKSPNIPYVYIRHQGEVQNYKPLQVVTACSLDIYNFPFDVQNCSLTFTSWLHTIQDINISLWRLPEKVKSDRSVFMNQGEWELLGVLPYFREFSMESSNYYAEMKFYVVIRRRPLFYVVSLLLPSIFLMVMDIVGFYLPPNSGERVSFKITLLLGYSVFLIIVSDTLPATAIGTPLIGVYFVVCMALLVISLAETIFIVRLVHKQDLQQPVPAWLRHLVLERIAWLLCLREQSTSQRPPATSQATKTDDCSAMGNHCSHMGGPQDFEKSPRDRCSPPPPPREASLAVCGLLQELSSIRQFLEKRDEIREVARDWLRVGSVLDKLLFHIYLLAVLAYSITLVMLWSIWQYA

[7] = molecular target: 3',5'-cyclic-AMP phosphodiesterase 4D (Homo sapiens, UniProt Q08499); format: functional
Chain of 3',5'-cyclic-AMP phosphodiesterase 4D (Q08499 whole entry): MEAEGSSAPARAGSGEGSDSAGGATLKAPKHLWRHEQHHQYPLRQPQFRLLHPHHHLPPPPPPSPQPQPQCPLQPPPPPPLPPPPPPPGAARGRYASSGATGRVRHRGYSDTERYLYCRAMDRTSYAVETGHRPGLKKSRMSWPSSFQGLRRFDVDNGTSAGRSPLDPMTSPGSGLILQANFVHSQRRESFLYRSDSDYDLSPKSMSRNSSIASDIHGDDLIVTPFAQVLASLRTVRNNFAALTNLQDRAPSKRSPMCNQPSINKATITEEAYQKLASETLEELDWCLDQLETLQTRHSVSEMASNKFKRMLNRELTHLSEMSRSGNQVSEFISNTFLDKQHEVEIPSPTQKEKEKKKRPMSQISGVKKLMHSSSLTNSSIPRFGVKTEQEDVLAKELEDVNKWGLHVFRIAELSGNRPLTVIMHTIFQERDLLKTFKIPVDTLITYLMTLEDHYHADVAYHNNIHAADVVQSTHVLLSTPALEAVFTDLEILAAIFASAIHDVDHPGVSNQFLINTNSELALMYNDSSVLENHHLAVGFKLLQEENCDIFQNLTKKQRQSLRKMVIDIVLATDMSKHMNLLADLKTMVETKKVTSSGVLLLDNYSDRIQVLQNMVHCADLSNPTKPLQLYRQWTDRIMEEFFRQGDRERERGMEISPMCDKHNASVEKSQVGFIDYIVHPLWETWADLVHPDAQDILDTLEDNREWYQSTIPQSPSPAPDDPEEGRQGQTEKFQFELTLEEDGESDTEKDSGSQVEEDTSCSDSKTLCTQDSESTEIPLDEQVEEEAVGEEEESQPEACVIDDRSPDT
Further: assay procedure not described here.

Row | Structure (SMILES) | AC50 [1] [µM] | AC50 (Vasopressin V2 receptor) [µM] | AC50 [2] [µM] | AC50 (Estrogen receptor) [µM] | AC50 [3] [µM] | AC50 [4] [µM] | AC50 [5] [µM] | AC50 [6] [µM] | AC50 [7] [µM]
1 | CC(=O)[C@@]1(O)CC[C@H]2[C@@H]3C=C(Cl)C4=CC(=O)[C@@H]5C[C@@H]5[C@]4(C)[C@H]3CC[C@@]21C [CYPROTERONE] | > 30 | > 10 | > 10 | > 30 | > 10 | > 10 | > 10 | > 30 | > 10
2 | C/C(=C\C(=O)OCCCCCCCCC(=O)O)C[C@@H]1OC[C@H](C[C@@H]2O[C@H]2[C@@H](C)[C@H](C)O)[C@@H](O)[C@H]1O [MUPIROCIN] | > 10 | > 10 | > 10 | > 10 | > 10 | > 10 | > 10 | > 30 | > 30
3 | CC(=O)OCC(=O)[C@@]1(O)[C@H](C)C[C@H]2[C@@H]3CCC4=CC(=O)C=C[C@]4(C)[C@@]3(F)[C@@H](O)C[C@@]21C [DEXAMETHASONE ACETATE] | > 30 | > 30 | > 10 |  | > 30 | > 10 | > 10 | > 30 | > 30
4 | O=C(O)c1ccccc1Nc1cc(Cl)ccc1C(=O)O [LOBENZARIT] | > 30 | > 30 | > 30 | > 30 | > 30 | > 30 | > 30 | > 30 | > 30
5 | C#CCOc1ccc(N)cc1C(=O)NCCCC [PARSALMIDE] | > 30 | > 30 | > 30 | > 30 | > 30 | > 30 | > 30 | > 30 | > 30
6 | CCN1CCCC1CNC(=O)c1cc(S(=O)(=O)CC)c(N)cc1OC (configuration not stated) [AMISULPRIDE] | > 30 | > 30 | > 30 | > 30 | > 30 | > 30 |  | > 30 | > 30
7 | Cc1ncc2n1-c1ccc(Cl)cc1C(c1ccccc1F)=NC2 [MIDAZOLAM] | > 30 | > 30 | > 10 | > 30 | > 30 | > 30 | > 10 | > 30 | 10
8 | COc1cc2ncnc(Nc3ccc(F)c(Cl)c3)c2cc1NC(=O)/C=C/CN1CCCCC1 [DACOMITINIB ANHYDROUS] |  |  | 11 |  |  |  |  |  | 25
9 | COc1ccc(-c2noc(CC(=O)O)c2-c2ccc(OC)cc2)cc1 [MOFEZOLAC] | > 30 | > 30 | > 30 |  | > 30 | > 30 | > 30 | > 30 | > 30
10 | Nc1cc(-c2ccncc2)c[nH]c1=O [INAMRINONE] | > 30 | > 30 |  | > 30 | > 30 | > 10 | > 10 | > 30 | 
11 | NC(=O)CN1CCCC1=O | > 30 | > 30 |  |  | > 30 | > 30 | > 30 | > 30 | > 30
12 | CC(=O)[C@]1(O)Cc2c(O)c3c(c(O)c2[C@@H](O[C@H]2C[C@H](N)[C@H](O)[C@H](C)O2)C1)C(=O)c1ccccc1C3=O [IDARUBICIN] | > 30 | > 10 |  |  | 7.7 |  |  | 13 | > 30
13 | Cn1cnc2c(F)c(Nc3ccc(Br)cc3Cl)c(C(=O)NOCCO)cc21 [SELUMETINIB] |  |  | > 10 |  |  |  |  |  | > 30
14 | Cn1c(=O)cc(N2CCC[C@@H](N)C2)n(Cc2ccccc2C#N)c1=O [ALOGLIPTIN] | > 30 | > 30 | > 10 | > 30 | > 30 |  |  | > 10 | > 30
15 | O=C1CN=C(c2ccccc2)c2cc([N+](=O)[O-])ccc2N1 [NITRAZEPAM] | > 30 | > 10 |  | > 10 | > 10 | > 10 | > 10 | > 30 | 30
16 | NC1CCN(c2nc3c(cc2F)c(=O)c(C(=O)O)cn3-c2ccc(F)cc2F)C1 (configuration not stated) [TOSUFLOXACIN] | > 30 | > 30 |  | > 30 | > 30 | > 30 | > 30 | > 30 | > 30
17 | CCN(CC)CCNC(=O)c1cc(S(C)(=O)=O)ccc1OC [TIAPRIDE] | > 30 | > 30 |  | > 30 | > 30 | > 30 | 29 | > 30 | > 30
18 | CN(C(=O)c1c(O)c2ccccc2n(C)c1=O)c1ccccc1 [ROQUINIMEX] |  |  | > 30 |  |  |  |  |  | > 30
19 | O=C(O)CCNC(=O)c1ccccc1 [BETAMIPRON] | > 30 | > 30 |  | > 30 | > 30 | > 30 | > 30 | > 30 | > 30
20 | CCC(COC(=O)c1cc(OC)c(OC)c(OC)c1)(c1ccccc1)N(C)C (configuration not stated) [TRIMEBUTINE] | > 30 | > 30 | > 30 |  | > 30 | > 30 | > 30 | > 30 | 26
21 | CCCCCCCCCCCCCCCCCCCCCC(=O)Nc1ccn([C@@H]2O[C@H](CO)[C@@H](O)[C@@H]2O)c(=O)n1 [ENOCITABINE] | > 30 | > 30 | > 30 |  | > 30 | > 30 | > 30 | > 30 | > 30
22 | CCOC(=O)O[C@]1(C(=O)OCCl)CC[C@H]2[C@@H]3CCC4=CC(=O)C=C[C@]4(C)[C@H]3[C@@H](O)C[C@@]21C [LOTEPREDNOL ETABONATE] | > 30 | > 30 | > 30 |  | > 30 | > 30 | > 30 | > 30 | > 30

Reference: ChEMBL document CHEMBL5291721, “A preclinical secondary pharmacology resource illuminates target-adverse drug reaction associations of marketed drugs” (Nat Commun, 2023)
